Values after ≈ are worked out from the molar mass of the structure shown. Counter-ions that a name gives are not always drawn. Like-named read-outs stand apart in the source and are kept apart here.
Tests used:
M. bovis BCG = experiment: microbe, parasite or virus in culture; format: cell-based, Mycobacterium bovis BCG; details: Mycobacterium tuberculosis variant bovis BCG, BCG, 168 h; for MIC50: read-out: MIC50 M. bovis BCG; for MIC90: read-out: MIC90 M. bovis BCG
M. tuberculosis H37Rv = experiment: microbe, parasite or virus in culture; format: cell-based, Mycobacterium tuberculosis; details: Mycobacterium tuberculosis
M. tuberculosis M299 = experiment: microbe, parasite or virus in culture; format: cell-based, Mycobacterium tuberculosis; details: Mycobacterium tuberculosis, M299, 120 h
[1] = tested on: NO production by LPS-stimulated RAW 264.7 macrophages; experiment: Inhibition of NO production by LPS-stimulated macrophages (Griess); format: cell-based, murine; details: mean ± SD, n = 3
[2] = tested on: TNF-α production by LPS-stimulated RAW 264.7 macrophages; experiment: Inhibition of TNF-α production by LPS-stimulated macrophages (ELISA); format: cell-based, murine; details: for IC50: Mus musculus, read-out: IC50 TNF-α
[3] = Macrophage cytotoxicity, LDH release assay; format: cell-based, murine; details: mouse, RAW 264.7 macrophages stimulated with LPS; LPS-stimulated RAW 264.7, LDH release; mean ± SD, n = 3
Method: Cytotoxic effects of chalcone samples on RAW 264.7 cell viability in cultures stimulated with LPS were determined using the LDH (lactate dehydrogenase) release assay as previously described [58]. Cytoplasmic enzyme LDH release into cell culture supernatants was detected using a commercial LDH kit (Doles, GO, Brazil). Cell death was expressed as percentage of LDH release, which was calculated using the following formula: percentage of LDH release = 100 × (test LDH release − spontaneous release)/(maximum release − spontaneous release). The maximum release was determined following dissolution of cell monolayers using 1% (vol/vol) Triton X-100. The spontaneous release was determined in supernatants from cultures incubated in the presence of LPS and DMSO, used as a solvent for chalcone samples.

[4] = tested on: IL-1β production by LPS-stimulated RAW 264.7 macrophages; experiment: Inhibition of IL-1β production by LPS-stimulated macrophages (ELISA); format: cell-based, murine; details: for IC50: Mus musculus, RAW264.7, 24 h, read-out: IC50 IL-1β
Method: (§1) Murine RAW 264.7 macrophage cell line (American Type Culture Collection, Manassas, VA, USA), was cultured in Dulbecco’s modified Eagle’s medium (DMEM-F12) supplemented with 10% Fetal Bovine Serum (FBS) and gentamicin (50 µg/mL) in 5% CO2 atmosphere at 37 °C. For experiments, the cells were seeded in 96-well plates (1 × 10^5 cells/well) and incubated for 24 h at 37 °C. For macrophage stimulation, the cell cultures were treated with LPS (1 µg/mL) and incubated for additional 24 h in the presence or absence of the chalcone samples (samples 1–41) that were used at concentrations of 100, 20, 4 and 0.8 µg/mL. In some experiments, a nitric oxide (NO) inhibitor, L-NMMA (20 μg/mL), was used as a positive control of NO inhibition, and a non-steroidal anti-inflammatory drug indomethacin, known to inhibit production of prostaglandins, was used as a positive control of PGE2 inhibition.
(§2) The frozen culture supernatants samples were thawed and immediately analyzed using commercially available enzyme-linked immunosorbent assay (ELISA) kits to measure TNF-α, IL-1β (BD Biosciences) and PGE2 (R&D Systems, Minneapolis, MN, USA), according to the manufacturer’s instructions. Standard curves for each mediator were generated using reference cytokine concentrations supplied by the manufacturer. Nitric oxide (NO) generation was assessed by the Griess method to measure nitrites, which are stable breakdown NO products.

[5] = tested on: PGE2 production by LPS-stimulated RAW 264.7 macrophages; experiment: Inhibition of PGE2 production by LPS-stimulated macrophages (ELISA); format: cell-based, murine; details: for IC50: Mus musculus, RAW264.7, 24 h, read-out: IC50 PGE2; for prostaglandin (PGE2) value: only LPS-treated cells 436.0 ± 5.8 pg/mL
Method: as §1, §2

[6] = H37RV, 120 h, read-out: MIC50 M. tuberculosis H37Rv
[7] = Mus musculus, RAW264.7, 24 h, LPS (1 µg/mL)-stimulated RAW 264.7, 24 h, read-out: IC50 NO
[8] = RAW264.7, LPS (1 µg/mL)-stimulated RAW 264.7, 24 h, mean ± SD, n = 3
[9] = Table 5, same values as M. tuberculosis H37Rv in Table 3, read-out: MIC50
[10] = LPS (1 µg/mL)-stimulated RAW 264.7, 24 h, read-out: IC50 NO
[11] = Mus musculus, RAW264.7, 24 h, read-out: IC50 NO, LPS (1 µg/mL)-stimulated RAW 264.7, 24 h

SMILES	MIC50 (M. bovis BCG) [µM]	MIC90 (M. bovis BCG) [µM]	IC50 [1, 7] [µM]	IC50 [2, 8] [µM]	IC50 [3] [µM]	IC50 [4] [µM]	IC50 [5] [µM]	other results
CO[C@H]1/C=C/O[C@@]2(C)Oc3c(C)c(O)c4c(O)c(c(/C=N/N5CCN(C)CC5)c(O)c4c3C2=O)NC(=O)/C(C)=C\C=C\[C@H](C)[C@H](O)[C@@H](C)[C@@H](O)[C@@H](C)[C@H](OC(C)=O)[C@@H]1C [Rifampicin, rifampicin, reference compound]	0.01 ± 0.03 (≈ 0.00823 µg/mL)	0.2 ± 0.01 (≈ 0.165 µg/mL)						MIC90 (M. tuberculosis H37Rv; H37RV, 120 h): 0.15 ± 0.08 µM (≈ 0.123 µg/mL); MIC50 (M. tuberculosis H37Rv; [6]): 0.11 ± 0.02 µM (≈ 0.0905 µg/mL); MIC50 (M. tuberculosis M299): 0.2 ± 0.18 µM (≈ 0.165 µg/mL); MIC90 (M. tuberculosis M299): 3.3 ± 0.16 µM (≈ 2.72 µg/mL)
COc1ccc(/C=C/C(=O)c2ccccc2Cl)cc1OC [Chalcone 36]	270 ± 3.9 (≈ 81.6 µg/mL)	> 330	188 ± 4.1	> 330	> 330			
O=C(/C=C/c1ccc2c(c1)OCO2)c1ccccc1Cl [Chalcone 35]	> 349	> 349	160 ± 4.7	> 349	> 349			
Cc1ccc(C(=O)/C=C/c2ccc(N(C)C)cc2)cc1 [Chalcone 19]	56.4 ± 4.4 (≈ 15 µg/mL)	322.7 ± 1.7 (≈ 85.6 µg/mL)	27.8 ± 3.8	> 377	> 377	> 377	> 377	MIC90 (M. tuberculosis H37Rv; H37RV, 120 h): > 377 µM; MIC50 (M. tuberculosis H37Rv; [6]): 112 ± 6.4 µM (≈ 29.8 µg/mL); MIC50 (M. tuberculosis H37Rv; [9]): 112 ± 6.4 µM (≈ 29.8 µg/mL)
COc1ccc(/C=C/C(=O)c2ccccc2Cl)cc1 [Chalcone 34]	> 367	> 367	> 367	> 367	> 367			
COc1ccc(C(=O)/C=C/c2ccc(Cl)cc2)cc1 [Chalcone 26]	91.2 ± 5 (≈ 24.9 µg/mL)	287 ± 7.8 (≈ 78.2 µg/mL)	25.3 ± 3.9	> 367	> 367	> 367	57.7 ± 1.9	
COc1ccc(C(=O)/C=C/c2ccc([N+](=O)[O-])cc2)cc1 [Chalcone 40]	14.5 ± 3.1 (≈ 4.11 µg/mL)	> 353		> 353	> 353	> 353	> 413	IC50 [1, 10]: 13.5 ± 5.5 µM; IC50 [1, 11]: < 21 µM; MIC90 (M. tuberculosis H37Rv; H37RV, 120 h): 352 ± 5.9 µM (≈ 99.7 µg/mL); MIC50 (M. tuberculosis H37Rv; [6]): 131.7 ± 1.3 µM (≈ 37.3 µg/mL); MIC50 (M. tuberculosis H37Rv; [9]): 131.7 ± 1.3 µM (≈ 37.3 µg/mL)
[H]/N=C(/NC)NCCC[C@H](N)C(=O)O [L-NMMA, N^G-Monomethyl-L-arginine acetate salt, reference compound]			78.3 ± 6.5					
COc1ccc2c(c1)c(CC(=O)O)c(C)n2C(=O)c1ccc(Cl)cc1 [indomethacin, reference compound]								prostaglandin (PGE2) value ([5]; 0.0004 µg/mL): 340.7 ± 1.1 pg/mL; prostaglandin (PGE2) value ([5]; 0.004 µg/mL): 271.6 ± 2.6 pg/mL; prostaglandin (PGE2) value ([5]; 0.04 µg/mL): 171.8 ± 1.2 pg/mL; prostaglandin (PGE2) value ([5]; 0.2 µg/mL): 11.8 ± 1.9 pg/mL
Cc1ccc(C(=O)/C=C/c2ccccc2)cc1 [Chalcone 16]	> 450	> 450	> 450	> 450	> 450			
Cc1ccc(C(=O)/C=C/c2ccc3c(c2)OCO3)cc1 [Chalcone 20]	> 376	> 376	30.1 ± 1.2	> 376	> 376	> 376	147.4 ± 1.2	
COc1ccc(C(=O)/C=C/c2ccc3c(c2)OCO3)cc1 [Chalcone 28]	> 354	> 354		> 354	> 354	> 354	22.1 ± 0.63	IC50 [1, 10]: 14.9 ± 4.1 µM; IC50 [1, 11]: < 21 µM
COc1ccc(C(=O)/C=C/c2ccc(N(C)C)cc2)cc1 [Chalcone 27]	309 ± 5 (≈ 86.9 µg/mL)	> 355	44.6 ± 5.2	> 355	226 ± 3.5			
O=C(/C=C/c1ccc([N+](=O)[O-])cc1)c1ccccc1 [Chalcone 37]	> 395	> 395	58.6 ± 4.5	> 395	> 395	> 395	322 ± 3.7	
Cc1ccc(C(=O)/C=C/c2ccccc2Cl)cc1 [Chalcone 23]	> 390	> 390	> 390	> 390	> 390			
COc1ccc(/C=C/C(=O)c2ccccc2)cc1 [Chalcone 6]					> 420			IC50 [1, 11]: > 420 µM; IC50 ([2]; RAW264.7, 24 h): > 420 µM
COc1ccc(/C=C/C(=O)c2ccc(C)cc2)cc1OC [Chalcone 22]	> 354	> 354	> 354	> 354	> 354			
O=C(/C=C/c1ccc(F)cc1)c1ccccc1Cl [Chalcone 32]	> 384	> 384	> 384	> 384	> 384			
O=C(/C=C/c1ccccn1)c1ccccc1 [Chalcone 7]	35.8 ± 7.2 (≈ 7.49 µg/mL)	441 ± 9.5 (≈ 92.2 µg/mL)	> 478	> 478	> 478			MIC90 (M. tuberculosis H37Rv; H37RV, 120 h): > 478 µM; MIC50 (M. tuberculosis H37Rv; [6]): > 478 µM
Cc1ccc(C(=O)/C=C/c2ccc(Cl)cc2)cc1 [Chalcone 18]	71.3 ± 4.8 (≈ 18.3 µg/mL)	323 ± 7.1 (≈ 83 µg/mL)	150 ± 3.8	> 390	304 ± 4.2			
O=C(/C=C/c1ccc([N+](=O)[O-])cc1)c1ccccc1Cl [Chalcone 41]	30.5 ± 4.7 (≈ 8.77 µg/mL)	247 ± 7.2 (≈ 71 µg/mL)		68.5 ± 3.3	> 348	13.5 ± 3.9	67.4 ± 2.2	IC50 [1, 10]: 11.2 ± 5 µM; IC50 [1, 11]: < 21 µM; inhibition of TNF-α ([2]; LPS-stimulated RAW 264.7): strongly inhibit; inhibition of IL-1β ([4]; LPS-stimulated RAW 264.7): potent inhibitors; MIC90 (M. tuberculosis H37Rv; H37RV, 120 h): 275 ± 6.7 µM (≈ 79.2 µg/mL); MIC50 (M. tuberculosis H37Rv; [6]): 82.1 ± 4.3 µM (≈ 23.6 µg/mL); MIC50 (M. tuberculosis H37Rv; [9]): 82.1 ± 4.3 µM (≈ 23.6 µg/mL)
COc1ccc(/C=C/C(=O)c2ccc(C)cc2)cc1 [Chalcone 21]	33.3 ± 5.4 (≈ 8.4 µg/mL)	362 ± 5.9 (≈ 91.4 µg/mL)	30.6 ± 4.7	> 396	> 396	> 396	50.1 ± 1	MIC90 (M. tuberculosis H37Rv; H37RV, 120 h): 368 ± 5.2 µM (≈ 92.9 µg/mL); MIC50 (M. tuberculosis H37Rv; [6]): 66.9 ± 6.2 µM (≈ 16.9 µg/mL); MIC50 (M. tuberculosis H37Rv; [9]): 66.9 ± 6.2 µM (≈ 16.9 µg/mL)
O=C(/C=C/c1ccc([N+](=O)[O-])cc1)c1ccc(Br)cc1 [Chalcone 38]	97.4 ± 4.2 (≈ 32.4 µg/mL)	221 ± 5.6 (≈ 73.3 µg/mL)	> 301	> 301	> 301			
COc1ccc(/C=C/C(=O)c2ccc(Br)cc2)cc1OC [Chalcone 14]	> 288	> 288	58.9 ± 6.8	> 288	> 288			
COc1ccc(/C=C/C(=O)c2ccc(Br)cc2)cc1 [Chalcone 13]	221 ± 3.6 (≈ 70 µg/mL)	> 315	52.9 ± 3.6	> 315	> 315			
Cc1ccc(C(=O)/C=C/c2ccc([N+](=O)[O-])cc2)cc1 [Chalcone 39]	28.1 ± 5.4 (≈ 7.51 µg/mL)	344 ± 6.3 (≈ 92 µg/mL)	114 ± 4.8	> 373	329 ± 3.9			MIC90 (M. tuberculosis H37Rv; H37RV, 120 h): > 373 µM; MIC50 (M. tuberculosis H37Rv; [6]): > 373 µM
Cc1ccc(C(=O)/C=C/c2ccc(F)cc2)cc1 [Chalcone 17]	61.5 ± 7.6 (≈ 14.8 µg/mL)	388 ± 7.3 (≈ 93.3 µg/mL)	30.8 ± 4.5	> 416	290 ± 4.3	> 416	> 417	MIC90 (M. tuberculosis H37Rv; H37RV, 120 h): > 416 µM; MIC50 (M. tuberculosis H37Rv; [6]): 63.8 ± 6.2 µM (≈ 15.3 µg/mL); MIC50 (M. tuberculosis H37Rv; [9]): 63.8 ± 6.2 µM (≈ 15.3 µg/mL)
O=C(/C=C/c1ccc2c(c1)OCO2)c1ccc(Br)cc1 [Chalcone 12]	84.9 ± 4.7 (≈ 28.1 µg/mL)	229.6 ± 2.2 (≈ 76 µg/mL)		> 302	> 302	> 302	50.3 ± 0.3	IC50 [1, 10]: 19.6 ± 3.3 µM; IC50 [1, 11]: < 21 µM
O=C(/C=C/c1ccccc1)c1ccccc1 [Chalcone 1, 1,3-diphenyl-2-propenone, reference compound]	137 ± 4.7 (≈ 28.6 µg/mL)	383 ± 9.1 (≈ 79.8 µg/mL)	41.6 ± 2	> 480	177 ± 9.5			

From publication PMC6272185 (Molecules, 2015)
